Experiment: Preformulation compatibility study: amlodipine and benazepril blends, with or without excipients, at accelerated stability conditions; colour change and degradation products by HPLC
Type: physicochemical
Settings: without any excipients
Procedure: The studies were carried out by blending amlodipine & benazepril and then mixing with excipients in amounts intended to be used in the proposed compositions. For example, amlodipine:benazepril:diluent were blended in the ratio 0.7:1:10, amlodipine:benazepril:disintegrant were blended in the ratio 0.7:1:2, amlodipine:benazepril:binder were blended in the ratio 0.7:1:2, and amlodipine:benazepril:lubricant were blended in the ratio 0.7:1:0.5.

## CCOC(=O)[C@H](CCc1ccccc1)N[C@H]1CCc2ccccc2N(CC(=O)O)C1=O [Benazepril alone, Benazepril]
Initial
  Related substances: Amlodipine impurity D: 0.000%
  Related substances: Benazepril impurity C: 0.130%
  Related substances: Benazepril impurity G: 0.060%
  Related substances: Total impurities: 0.260%
Charged on stability, 3M
  Related substances: Amlodipine impurity D: 0.000%
  Related substances: Benazepril impurity C: 0.143%
  Related substances: Benazepril impurity G: 0.000%
  Related substances: Total impurities: 0.267%

From patent US10130624B2, “Pharmaceutical compositions of amlodipine and benazepril” (LUPIN LIMITED, priority 2005, dated 2018)
